Assay results from patent US10766917B2, “Nucleotides for the treatment of cancer” (IDENIX PHARMACEUTICALS LLC, priority 2015, dated 2020).
pIC50: −log10 of the molar value.

Experiments:
Experiment in all cases: In vitro inhibition, CellTiter-Glo (CTG) assay
Type in all cases: cell-based
[1] = test system: A498; settings: 72 hr exposure
Description: (§1) Cells were grown in RPMI-1640 supplemented with L-Glutamine and 10% FBS of the following cell lines:
(§2) CCRF-CEM; HL-60; KG-1; CFPAC-1; MiaPACA-2; BxPC-3; HepG2; MDA-MB-231; HCT-116; A498; and NCI-H69
(§3) 18, 96 well plates of each cell line were seeded with the optimized number of cells per well in a total volume of 50 μper well. The plates were left overnight. Plate wells were seeded with 100 pt media for media control. The following day, cells were exposed to test compounds as described below. At the same time as drug exposure, a CTG assay was conducted on the 18th plate for the 0 hr count.
(§4) The compounds were added to cells and medium already on the plate to give desired final concentrations. 50 μL media were added to cell control wells, and 50 μL of mix added to vehicle control wells. 10 μM Doxorubicin was added to appropriate wells as control. Cells exposed to test compound were incubated at 37° C. for 72 hr followed by a CTG assay.
(§5) At the end of the 72 hr exposure period, plates were removed for a CellTiter-Glo (CTG) assay from a 37° C., 5% CO2 incubator and placed on the bench at room temperature for 30 mins. 100 μL of CellTiter-Glo reagent was added and mixed for 2 mins, followed by a further 10 min incubation at room temperature. Luminescence was recorded using Synergy 4.0.

[2] = test system: BxPC-3; settings: 72 hr exposure
Description: as §1, §2, §3, §4, §5

[3] = test system: CCRF-CEM; settings: 72 hr exposure
Description: as §1, §2, §3, §4, §5

[4] = test system: CFPAC-1; settings: 72 hr exposure
Description: as §1, §2, §3, §4, §5

[5] = test system: HCT-116; settings: 72 hr exposure
Description: as §1, §2, §3, §4, §5

[6] = test system: HL-60
Description: as §1, §2, §3, §4, §5

[7] = test system: HepG2; settings: 72 hr exposure
Description: as §1, §2, §3, §4, §5

[8] = test system: KG-1
Description: as §1, §2, §3, §4, §5

[9] = test system: MDA-MB-231
Description: as §1, §2, §3, §4, §5

[10] = test system: MiaPACA-2; settings: 72 hr exposure
Description: as §1, §2, §3, §4, §5

[11] = test system: NCI-H69
Description: as §1, §2, §3, §4, §5

[12] = Homo sapiens, MDA-MB-231, 72 hr exposure

SMILES	pIC50 [1]	pIC50 [2]	pIC50 [3]	pIC50 [4]	pIC50 [5]	pIC50 ([6]; 72 hr exposure)	pIC50 [7]	pIC50 ([8]; 72 hr exposure)	pIC50 ([9]; 72 hr exposure)	pIC50 [10]	pIC50 ([11]; 72 hr exposure)	pIC50 ([4]; Homo sapiens, CFPAC-1, 72 h)	pIC50 ([5]; Homo sapiens, HCT-116, 72 h)	pIC50 ([7]; Homo sapiens, HepG2, 72 h)	pIC50 [9, 12]	pIC50 ([10]; Homo sapiens, MIA PaCa-2, 72 h)	also measured
Cn1c(COP(=O)(NCc2ccccc2)OC[C@H]2O[C@@H](n3ccc(N)nc3=O)C(F)(F)[C@@H]2O)cnc1[N+](=O)[O-] (single isomer, unassigned) [112 (diastereomer 2)]	4.00 to 5.00	4.00 to 5.00	> 6.00	5.00 to 6.00	4.00 to 5.00	> 6.00	5.00 to 6.00	5.00 to 6.00	4.00 to 5.00	4.00 to 5.00	4.00 to 5.00	–	–	–	–	–	–
CC(C)OC(=O)[C@H](C)NP1(=O)OC[C@H]2O[C@@H](n3ccc(N)nc3=O)C(F)(F)[C@@H]2O1 (single isomer, unassigned) [103 (diastereomer 1)]	–	4.00 to 5.00	–	–	–	–	–	–	–	–	–	> 6.00	5.00 to 6.00	> 6.00	4.00 to 5.00	5.00 to 6.00	pIC50 ([1]; Homo sapiens, A498, 72 h): 4.00 to 5.00; pIC50 ([3]; Homo sapiens, CCRF-CEM): > 6.00; pIC50 ([6]; Homo sapiens, HL-60, 72 hr exposure): > 6.00; pIC50 ([8]; Homo sapiens, KG-1, 72 hr exposure): > 6.00; pIC50 ([11]; Homo sapiens, NCI-H69, 72 hr exposure): 4.00 to 5.00
CC(C)OC(=O)[C@H](C)NP1(=O)OC[C@H]2O[C@@H](n3ccc(N)nc3=O)C(F)(F)[C@@H]2O1 (single isomer, unassigned) [103 (diastereomer 2)]	4.00 to 5.00	5.00 to 6.00	> 6.00	5.00 to 6.00	5.00 to 6.00	> 6.00	> 6.00	> 6.00	4.00 to 5.00	5.00 to 6.00	4.00 to 5.00	–	–	–	–	–	–
CCOC(=O)COP(=O)(N[C@@H](CC(C)C)C(=O)OCC)OC[C@H]1O[C@@H](n2ccc(N)nc2=O)C(F)(F)[C@@H]1O (single isomer, unassigned) [108 (diastereomer 2)]	4.00 to 5.00	> 6.00	> 6.00	> 6.00	5.00 to 6.00	> 6.00	> 6.00	> 6.00	5.00 to 6.00	> 6.00	4.00 to 5.00	–	–	–	–	–	–
CCOC(=O)COP(=O)(N[C@@H](CC(C)C)C(=O)OCC)OC[C@H]1O[C@@H](n2ccc(N)nc2=O)C(F)(F)[C@@H]1O (single isomer, unassigned) [108 (diastereomer 1)]	> 6.00	–	–	–	–	–	–	–	–	–	5.00 to 6.00	> 6.00	5.00 to 6.00	> 6.00	5.00 to 6.00	> 6.00	pIC50 ([2]; Homo sapiens, BXPC-3, 72 h): 5.00 to 6.00; pIC50 ([3]; Homo sapiens, CCRF-CEM, 72 h): > 6.00; pIC50 ([6]; Homo sapiens, HL-60, 72 h, 72 hr exposure): > 6.00; pIC50 ([8]; Homo sapiens, KG-1, 72 h, 72 hr exposure): > 6.00
